What was measured:
[1] = Bioavailability study in mice; format: in vivo; settings: male, mouse, plasma, 1 mg/kg intravenous, 10 mg/kg oral
Procedure: (§1) Male mice (C57BL/6 or CD1) or Wistar rats of 8-10 weeks old were used. For each test compound, two groups of 3 animals each were used. One group was administered a single intravenous dose of 1 mg/kg (vehicle 100% DMSO) through the tail vein and the other group was administered a single oral dose of 10 mg/kg through gavage needle. The group that was administered an oral dose was fasted overnight. Blood samples were collected after 0.083, 0.25, 0.5, 1, 2, 4, 6, 8 and 24 hours following intravenous administration, and after 0.25, 0.5, 1, 2, 4, 6, 8 and 24 hours following oral administration. Blood samples were taken from saphenous vein. 0.2% EDTA was used as the anticoagulant. The samples were analyzed by a discovery grade bioanalytical method developed for the estimation of test compound in plasma, using an LC-MS/MS system.

[2] = test system: urinary total bile acids; assay: Urinary bile acid output in dogs; format: in vivo; settings: male Beagle dogs, once daily for three days at 10 and 50 mg/kg
Procedure: Male Beagle dogs were used in the study. Animals were dosed with the compound of Example 2 once daily for three days at 10 and 50 mg/kg, respectively. Basal urine samples were collected before study start by cystocentesis. Urine samples were then collected at 2 h and 8 h post-dosing on Day 1 and Day 3. Urine bile acids and urine creatinine analyses were performed at a clinical chemistry lab.

[3] = biological target: T1, Human IBAT (Homo sapiens, UniProt Q12908); assay: IBAT assay, 3H-taurocholic acid uptake in human IBAT-overexpressing cells; format: cell-based; settings: read-out: hIBAT IC50
T1 construct: expressed in transfected cells; kept under Puromycin selection
T1 sequence (Q12908 1-348): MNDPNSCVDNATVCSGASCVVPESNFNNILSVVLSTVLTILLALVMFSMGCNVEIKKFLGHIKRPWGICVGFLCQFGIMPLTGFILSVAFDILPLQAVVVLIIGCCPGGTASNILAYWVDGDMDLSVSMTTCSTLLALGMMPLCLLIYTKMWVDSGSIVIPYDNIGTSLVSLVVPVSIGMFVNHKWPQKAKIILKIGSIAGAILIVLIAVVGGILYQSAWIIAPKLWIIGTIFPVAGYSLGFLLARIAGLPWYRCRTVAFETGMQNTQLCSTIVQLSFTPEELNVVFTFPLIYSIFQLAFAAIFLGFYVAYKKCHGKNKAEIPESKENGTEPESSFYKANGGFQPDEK
Procedure: (§2) 10,000 cells (Human or Mouse IBAT-overexpressing cells) were seeded in 96-wells plate (Corning CLS3809) in 200 μL MEM-alpha medium (Gibco 12571-063) supplemented with 10% FBS (Gibco 10438026) containing Puromycin (Gibco A1113803) (10 μg/mL) and incubated at 37° C. in 5% CO2 for 48 hours. After incubation, media was decanted from the wells and cells were washed two times with 300 μL of basal MEM-alpha medium (FBS-free). After decanting basal MEM-alpha medium each time, plates were tapped against paper towel to ensure maximum removal of residual media.
(§3) Test inhibitor dilutions (highest test concentration being 10 μM, 3-fold serial dilution, 10 points) prepared in DMSO (Sigma D2650) were added in incubation mix (maintaining 0.2% final DMSO concentration) containing 0.25 μM 3H-taurocholic acid (ARC ART-1368) and 5 μM of cold taurocholic acid (Sigma T4009). 50 μL of incubation mix containing test inhibitors was then added to the wells (in duplicate) and the plates were incubated for 20 minutes in a CO2 incubator at 37° C. After incubation, the reaction was stopped by keeping the plates on ice water mix for 2-3 minutes and then the incubation mix was aspirated completely from the wells. The wells were washed two times with 250 μL of chilled unlabelled 1 mM taurocholic acid dissolved in HEPES (Gibco 15630080)-buffered (10 mM) HBSS (Gibco 14175079) (pH 7.4). The plates were tapped against a paper towel after every wash to ensure maximum removal of blocking buffer.
(§4) 100 μL of MicroScint-20 (PerkinElmer 6013621) was added to the wells and kept overnight at room temperature before reading the plates in TopCount NXT™ Microplate Scintillation and Luminescence Counter from PerkinElmer under 3H Test protocol (set at 120 seconds reading time per well).
(§5) All test compounds were provided in powder form at room temperature. 10 mM DMSO stocks of the test compounds were prepared, aliquoted and stored at −20° C. From the 10 mM DMSO stock of the compounds, a 3-fold serial dilution in DMSO was prepared to get a total of 10 dilutions of the test compounds. 0.5 μL of this dilution in DMSO was added to 250 μL of FBS-free basal media containing 3H-taurocholic acid and cold taurocholic acid to prepare the incubation mixture.

[4] = biological target: T2, Human LBAT (Homo sapiens, UniProt Q14973); assay: LBAT assay, 3H-taurocholic acid uptake in human LBAT-overexpressing cells; format: cell-based; settings: read-out: hLBAT IC50
T2 construct: expressed in transfected cells; kept under Geneticin selection
T2 sequence (Q14973 1-349): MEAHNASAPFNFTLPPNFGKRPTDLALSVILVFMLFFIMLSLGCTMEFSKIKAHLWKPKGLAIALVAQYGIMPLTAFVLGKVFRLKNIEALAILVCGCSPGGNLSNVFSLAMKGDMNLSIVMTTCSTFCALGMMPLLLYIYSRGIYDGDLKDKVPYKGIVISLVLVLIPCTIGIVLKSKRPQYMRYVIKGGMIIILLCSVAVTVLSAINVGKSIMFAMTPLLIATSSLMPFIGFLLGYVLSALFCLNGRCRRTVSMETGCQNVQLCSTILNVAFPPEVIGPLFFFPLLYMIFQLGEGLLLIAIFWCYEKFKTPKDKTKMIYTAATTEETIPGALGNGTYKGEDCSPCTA
Procedure: as §2, with “20,000” for “10,000”, “LBAT-overexpressing” for “IBAT-overexpressing”, “100” for “200”, “Geneticin” for “Puromycin”, “10131-027) (1 mg/mL)” for “A1113803) (10 μg/mL)”, “24” for “48”
For human LBAT, incubation mix was prepared by adding test inhibitor dilutions (3-fold serial dilution in DMSO (Sigma D2650), 10 points) in MEM-alpha (without FBS) containing 0.3 μM 3H-taurocholic acid (ARC ART-1368) and 7.5 μM cold taurocholic acid (Sigma T4009) (maintaining 0.2% final DMSO concentration). For mouse LBAT, incubation mix was prepared by adding test inhibitor dilutions (3-fold serial dilution in DMSO, 10 points) in MEM-alpha (without FBS) containing 0.3 μM 3H-taurocholic acid and 25 μM cold taurocholic acid maintaining 0.2% final DMSO concentration).
as §3, with “50” for “Test inhibitor dilutions (highest test concentration being 10 μM, 3-fold serial dilution, 10 points) prepared in DMSO (Sigma D2650) were added in incubation mix (maintaining 0.2% final DMSO concentration) containing 0.25 μM 3H-taurocholic acid (ARC ART-1368) and 5 μM of cold taurocholic acid (Sigma T4009). 50”
as §4, with “well, with normal plate orientation).” for “well).”
as §5

[5] = Bioavailability study in rats; format: in vivo; settings: male, Wistar, plasma; rat; 1 mg/kg intravenous, 10 mg/kg oral
Procedure: as §1

[6] = Bidirectional permeability assay (Caco-2 cells); format: in vitro ADME; settings: human; for Papp A→B at 120 min, 10 µM: Caco-2, pH 7.4, absorptive direction A2B; for Papp B→A at 120 min, 10 µM: Caco-2, pH 7.4, secretory direction B2A
Description: HepaRG-Based Assay Protocol

Row | bioavailability ([1]; C57BL/6 mice) [%] | bioavailability ([1]; CD1 mice) [%] | IC50 [3] [nM] | IC50 [4] [nM] | bioavailability [5] [%] | Papp A→B at 120 min, 10 µM [6] [×10⁻⁶ cm/s] | Papp B→A at 120 min, 10 µM [6] [×10⁻⁶ cm/s] | SMILES | urinary total bile acids increase versus baseline [2]
1 | 15.7 | 32.1 to 55.7 | 22.7 | 17.4 | 34.5 | 3.6 | 6.6 | CCCC[C@]1(C)CN(c2ccccc2)c2cc(SC)c(O/C=C(\F)C(=O)O)cc2S(=O)(=O)C1 (single isomer, unassigned) [Example 2] | 5- to 10 fold
2 |  |  | 735 | 9.2 |  | 3.6 | 9.3 | CCCC[C@@]1(C)CN(c2ccccc2)c2cc(SC)c(O/C=C(\F)C(=O)O)cc2S(=O)(=O)C1 (single isomer, unassigned) [Example 3] | 
3 |  |  |  | 32 |  |  |  | CCCC1(C)CN(c2ccccc2)c2cc(SC)c(OC=CC(=O)O)cc2S(=O)(=O)C1 (single isomer, unassigned) [Example 5] | 
4 |  |  | 678 | 1050 |  |  |  | CCC[C@]1(C)CN(c2ccccc2)c2cc(SC)c(O/C=C/C(=O)O)cc2S(=O)(=O)C1 (single isomer, unassigned) [Example 6] | 
5 |  |  | 465 | 5.2 |  | 3.6 | 6.2 | CCC[C@]1(C)CN(c2ccccc2)c2cc(SC)c(O/C=C(\F)C(=O)O)cc2S(=O)(=O)C1 (single isomer, unassigned) [Example 8] | 
6 |  |  | 186 | 56 |  |  |  | CCC[C@@]1(C)CN(c2ccccc2)c2cc(SC)c(O/C=C(\F)C(=O)O)cc2S(=O)(=O)C1 (single isomer, unassigned) [Example 9] | 
7 |  |  | 23.7 | 14.4 |  |  |  | CCCCC1(C)CN(c2ccccc2)c2cc(SC)c(O/C=C(\F)C(=O)O)cc2S(=O)(=O)C1 (centres unmarked) [Example 1, (Z)-3-((3-buty-3-methyl-7-(methylthio)-1,1-dioxido-5-phenyl-2,3,4,5-tetrahydro-1,5-benzothiazepin-8-yl)oxy)-2-fluoroacrylic acid] | 
8 |  |  | 564 | 66 |  |  |  | CCCC1(C)CN(c2ccccc2)c2cc(SC)c(O/C=C/C(=O)O)cc2S(=O)(=O)C1 (centres unmarked) [Example 4, (E)-3-((3-methyl-7-(methylthio)-1,1-dioxido-5-phenyl-3-propy-2,3,4,5-tetrahydro-1,5-benzothiazepin-8-yl)oxy)acrylic acid] | 
9 |  |  | 435 | 23 |  |  |  | CCCC1(C)CN(c2ccccc2)c2cc(SC)c(O/C=C(\F)C(=O)O)cc2S(=O)(=O)C1 (centres unmarked) [Example 7, (Z)-2-fluoro-3-((3-methyl-7-(methylthio)-1,1-dioxido-5-phenyl-3-propy-2,3,4,5-tetrahydro-1,5-benzothiazepin-8-yl)oxy)acrylic acid] | 
10 |  |  | 906 | 83 |  |  |  | CCC1(C)CN(c2ccccc2)c2cc(SC)c(O/C=C(\F)C(=O)O)cc2S(=O)(=O)C1 (centres unmarked) [Example 10, (Z)-3-((3-ethyl-3-methyl-7-(methylthio)-1,1-dioxido-5-phenyl-2,3,4,5-tetrahydro-1,5-benzothiazepin-8-yl)oxy)-2-fluoroacrylic acid] | 

From patent US12060338B2, “Benzothia(di)azepine compounds and their use as bile acid modulators” (Albireo AB, priority 2019, dated 2024)
